According to patent US20130302889A1, “Differentiation of Bone Marrow Cells into Neuronal Cells and Uses Therefor” (Philadelphia Health and Education Corporation, priority 2002, published 2013):
Entries after “also recorded” stand apart in the source; their conditions may differ.

What was measured:
rMSCs [1] = assay: Neuronal differentiation of rMSCs (morphology); assay type: cell-based, rat; settings: for neuronal morphologies elicited by anti-oxidant treatment: alone and in combination, time course similar to BME
Procedure: Rat MSCs were originally cultured in alpha-Modified Eagle's Medium (alpha-MEM) supplemented with 20% FBS, 2 mM L-glutamine, 100 units per milliliter penicillin, […] streptomycin and 25 nanogramps per milliliter amphotericin B. For each passage the cells were plated at about 8,000 cells per square centimeter and grown to confluency. At passage 6 the cells were transferred to DMEM (pH 8.0)/20% FBS without additional supplementation, and maintained beyond passage 14. The rat MSCs were obtained with a protocol and procedures approved by the Institutional IACUC. The human samples were obtained from volunteers with informed consent and according to a protocol approved by the Institutional Review Board.
To induce the neuronal phenotype, rMSCs were initially maintained in sub-confluent cultures in media supplemented with 1 mM beta-mercaptoethanol (BME) for 24 hours. […] To effect neuronal differentiation, the cells were transferred to serum-free medium containing 1-10 millimolar BME (SFM/BME). […] Within 60 minutes of exposure to SFM/BME changes in morphology of some of the rMSCs were apparent (FIG. 2C). Responsive cells progressively assumed neuronal morphological characteristics over the first 3 hours. Initially, cytoplasm in the flat rMSCs retracted towards the nucleus, forming a contracted multipolar, cell body, leaving membranous, process-like extensions peripherally (0-90 minutes).
To begin examining the hypothesis that the anti-oxidant properties of BME mediated induction of neuronal differentiation in MSCs, rMSCs were treated with other anti-oxidants, e.g., dimethylsulfoxide (DMSO), butylated hydroxyanisole (BHA), or butylated hydroxytoluene (BHT), ascorbic acid, dimethylfumarate, n-acetylcysteine, and the like, both alone and in combination with each other.

rMSCs [2] = assay: Immunocytochemistry for neuronal markers in treated rMSCs; assay type: cell-based, rat
Procedure: Cultured rMSCs were fixed with 4% paraformaldehyde, incubated with primary antibody overnight at 4° C., incubated with secondary antibody for one hour, followed by exposure to avidin-biotin complex for one hour at 25° C. Diaminobenzidene (DAB) served as chromogenic substrate for HRP.
To further characterize potential neuronal differentiation, BME-treated cultures were stained to detect expression of the neuronal marker neuron-specific enolase (NSE). Unresponsive, flat rMSCs expressed very low, but detectable, levels of NSE protein, consistent with previous detection of minute amounts of protein and/or message in cells of bone marrow origin (Pechumer et al., 1993, Lab. Invest. 89:743-749; Reid et al., 1991, Clin. Pathol. 44:483-486; vanObberghen et al., 1988, J. Neurosci. Res. 19:450-456).

rMSCs [3] = assay: Western blot for NSE in rMSC cultures; assay type: cell-based, rat; settings: 5 hours post BME treatment, versus uninduced rMSCs
Procedure: […] of protein extract from untreated (U) and BME-induced (I) rMSC cultures was separated on a 4%-20% gradient acrylamide gel and electrophoretically transferred to a nylon membrane. The Western blot was probed for tubulin, expression using an anti-tubulin monoclonal antibody (Sigma Chemical Co., St. Louis, Mo.) followed by secondary antibody conjugated with horse radish peroxidase (HRP). Color development was performed using enhanced chemiluminescence reagents (Amersham, Piscataway, N.J.). The blot was then stripped and probed for NSE expression using anti-NSE polyclonal antibody (ICN). Again, the secondary antibodies were HRP-conjugated, and color was developed using ECL reagents, […]

rMSC clones = assay: Differentiation of clonal rMSC lines; assay type: cell-based, rat; settings: after BME treatment
Procedure: To establish clones, rMSCs were plated at approximately 10 cells per square centimeters, grown to 50-150 cells per colony, isolated with cloning cylinders, transferred to separate wells and eventually to individual flasks.

hMSCs = assay: Neuronal differentiation of human MSCs; assay type: cell-based
Procedure: Cells from passage two were subjected to the neuronal differentiation protocol and stained for NSE or NF-M expression. […] Contracted cell bodies elaborated processes and stained strongly for NSE expression within 3 hours (FIGS. 8A and 8B). Transitional cells were also evident ( ? ). […] Growth cone morphologies with filopodial extensions ( ? ) were clearly evident on the processes elaborated by paired neurons depicted in the image in FIG. 8C.

SMILES: COc1ccc(O)c(C(C)(C)C)c1 [BHA, butylated hydroxyanisole]
- neuronal morphologies elicited by anti-oxidant treatment (rMSCs [1]): elicited neuronal morphologies

SMILES: Cc1cc(C(C)(C)C)c(O)c(C(C)(C)C)c1 [BHT, butylated hydroxytoluene]
- neuronal morphologies elicited by anti-oxidant treatment (rMSCs [1]): elicited neuronal morphologies

SMILES: OCCS [BME, beta-mercaptoethanol]
- percentage of cells adopting a neuronal morphology (rMSCs [1]; SFM with 1-10 millimolar BME, effect of concentration): increased at higher BME concentrations
- percentage of cells adopting a neuronal morphology (rMSCs [1]; effect of BME pretreatment): enhanced by BME pretreatment
- time to apparent changes in morphology (rMSCs [1]; serum-free medium containing 1-10 millimolar BME (SFM/BME)): ≤ 60 minutes
- changes in morphology (rMSCs [1]; sub-confluent cultures, media supplemented with 1 mM BME for 24 hours): no changes in morphology were evident
- NSE expression (immunostaining) (rMSCs [2]; BME-treated cultures): increased expression of NSE
- time to increased expression of neuronal marker NSE (rMSCs [2]; after treatment): ≤ 30 min
- NF-M expression (immunostaining) (rMSCs [2]; cells exhibiting neuronal morphologies): increased expression of NF-M
- NeuN expression (immunostaining) (rMSCs [2]; differentiated cultures): stained for NeuN expression
- NSE expression (Western blot) (rMSCs [3]): significant increase in NSE expression
- generation of NSE-positive neurons from single-cell clones (rMSC clones): differentiated into NSE-positive neurons; also recorded: generated refractile, process-bearing, NSE-positive cells
- NF-M expression (hMSCs; hMSC-derived neurons): expressed NF-M
- neuronal characteristics and NSE expression (hMSCs; hMSCs passage two, after BME treatment): attained neuronal characterises and increased NSE expression
- time to strong NSE staining (hMSCs; hMSCs, BME treatment): ≤ 3 h

SMILES: C[S+](C)[O-] [DMSO, dimethylsulfoxide]
- neuronal morphologies elicited by anti-oxidant treatment (rMSCs [1]): elicited neuronal morphologies

SMILES: O=C1O[C@H]([C@@H](O)CO)C(O)=C1O [ascorbic acid]
- neuronal morphologies elicited by anti-oxidant treatment (rMSCs [1]): elicited neuronal morphologies

SMILES: CC(=O)N[C@@H](CS)C(=O)O [n-acetylcysteine]
- neuronal morphologies elicited by anti-oxidant treatment (rMSCs [1]): elicited neuronal morphologies
